The text below walks through data of US9765092B2, “Tricyclic piperidine compounds” (ACTELION PHARMACEUTICALS LTD, priority 2013, dated 2017).

human TPH1, sequence (P17752 whole entry): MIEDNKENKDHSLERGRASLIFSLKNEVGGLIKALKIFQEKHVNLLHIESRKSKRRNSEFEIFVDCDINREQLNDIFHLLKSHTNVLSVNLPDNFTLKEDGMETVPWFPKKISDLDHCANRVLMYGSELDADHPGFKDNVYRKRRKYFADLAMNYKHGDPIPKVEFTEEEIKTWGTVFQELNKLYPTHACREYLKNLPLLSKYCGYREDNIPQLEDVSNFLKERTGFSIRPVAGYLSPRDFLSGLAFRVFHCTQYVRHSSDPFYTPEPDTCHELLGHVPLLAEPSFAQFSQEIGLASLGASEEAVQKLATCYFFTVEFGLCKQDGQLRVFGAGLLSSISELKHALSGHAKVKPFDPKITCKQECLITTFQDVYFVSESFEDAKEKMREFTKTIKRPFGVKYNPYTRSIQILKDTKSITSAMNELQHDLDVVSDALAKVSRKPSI

One experiment has as its target human TPH1 (Homo sapiens (Human), UniProt P17752). Kind of experiment: Biochemical in vitro assay using fluorescence readout (TPH1 inhibition). Conditions: full length human TPH1, 40 μM L-tryptophan, 15° C., 60 minutes, fluorescence at 540 nm; mean if determined several times.
For orientation: IC50 means the concentration at which inhibition is half-maximal. `Cc1nn2c3c(nc2s1)CCN(C(=O)COc1ccc(N2CC(F)(F)C2)nc1Cl)C3c1cc(C(=O)N(C)C)cs1` (stereo not drawn) [Example 1.9.2, 5-(6-(2-((2-Chloro-6-(3,3-difluoroazetidin-1-yl)pyridin-3-yl)oxy)acetyl)-2-methyl-5,6,7,8-tetrahydro-[1,3,4]thiadiazolo[2′,3′:2,3]imidazo[4,5-c]pyridin-5-yl)-N,N-dimethylthiophene-3-carboxamide] registered an IC50 of 32 nM.

With `Cc1nn2c3c(nc2s1)CCN(C(=O)COc1ccc(C(=O)N(C)C)nc1Cl)C3c1cnc(N(C)C)s1` (stereo not drawn) [Example 1.22.9, 6-Chloro-5-(2-(5-(2-(dimethylamino)thiazol-5-yl)-2-methyl-7,8-dihydro-[1,3,4]thia-diazolo[2′,3′:2,3]imidazo[4,5-c]pyridin-6(5H)-yl)-2-oxoethoxy)-N,N-dimethylpicolinamide], the IC50 worked out at 9 nM. Still for that read-out and setting: under `Cc1nn2c3c(nc2s1)CCN(C(=O)COc1ccc(N2CCOCC2)nc1Cl)C3c1ncc(C(=O)N(C)C)s1` (stereo not drawn) [Example 1.37.5, 2-(6-(2-((2-Chloro-6-morpholinopyridin-3-yl)oxy)acetyl)-2-methyl-5,6,7,8-tetrahydro-[1,3,4]thiadiazolo[2′,3′:2,3]imidazo[4,5-c]pyridin-5-yl)-N,N-dimethylthiazole-5-carboxamide] stands 9 nM; under `Cc1nn2c3c(nc2s1)CCN(C(=O)COc1ccc(N2CCOCC2)nc1Cl)C3c1nc(N)sc1F` (stereo not drawn) [Example 1.52.1, 1-(5-(2-Amino-5-fluorothiazol-4-yl)-2-methyl-7,8-dihydro-[1,3,4]thiadiazolo[2′,3′:2,3]-imidazo[4,5-c]pyridin-6(5H)-yl)-2-((2-chloro-6-morpholinopyridin-3-yl)oxy)ethanone], 6 nM; under `Cc1nn2c3c(nc2s1)CCN(C(=O)COc1ccc(N)nc1Cl)C3c1ccc(Cl)cc1F` (stereo not drawn) [Example 1.4.22, 2-((6-amino-2-chloropyridin-3-yl)oxy)-1-(5-(4-chloro-2-fluorophenyl)-2-methyl-7,8-dihydro-[1,3,4]thiadiazolo[2′,3′:2,3]imidazo[4,5-c]pyridin-6(5H)-yl)-ethanone], 10 nM.

The experiment is the same for the next values; noted with them: human TPH1, fluorescence readout.
In turn, `O=C(COc1ccc(CN2CCOCC2)nc1Cl)N1CCc2nc3sccn3c2C1c1cc2cccnc2s1` (stereo not drawn) [Example 6.14.4, 2-((2-chloro-6-(morpholinomethyl)pyridin-3-yl)oxy)-1-(5-(thieno[2,3-b]pyridin-2-yl)-7,8-dihydrothiazolo-[2′,3′:2,3]imidazo[4,5-c]pyridin-6(5H)-yl)ethanone] registered a half-inhibitory concentration (IC50) of 38 nM. The same measure, in the same setting: with `CCc1nc(C)c(C2c3c(nc4sc(C)nn34)CCN2C(=O)COc2ccc(NS(C)(=O)=O)nc2Cl)s1` (stereo not drawn) [Example 1.72.1, N-(6-chloro-5-(2-(5-(2-ethyl-4-methylthiazol-5-yl)-2-methyl-7,8-dihydro-[1,3,4]thiadiazolo[2′,3′:2,3]imidazo-[4,5-c]pyridin-6(5H)-yl)-2-oxoethoxy)pyridin-2-yl)methanesulfonamide] the figure was 22 nM; with `Cc1nn2c3c(nc2s1)CCN(C(=O)COc1ccc(C(F)(F)F)cc1Cl)C3c1sccc1F` (stereo not drawn) [Example 1.23.5, 2-(2-chloro-4-(trifluoromethyl)phenoxy)-1-(5-(3-fluorothiophen-2-yl)-2-methyl-7,8-dihydro-[1,3,4]thiadiazolo[2′,3′:2,3]imidazo[4,5-c]pyridin-6(5H)-yl)ethanone], 9 nM. In turn, `Cc1nn2c3c(nc2s1)CCN(C(=O)COc1ccc(C(=O)N(C)C)nc1Cl)C3c1ncc(Cl)cc1F` (stereo not drawn) [Example 1.33.3, 6-chloro-5-(2-(5-(5-chloro-3-fluoropyridin-2-yl)-2-methyl-7,8-dihydro-[1,3,4]thiadiazolo[2′,3′:2,3]imidazo[4,5-c]pyridin-6(5H)-yl)-2-oxoethoxy)-N,N-dimethylpicolinamide] gave a concentration for half-maximal inhibition (IC50) of 6 nM.

`Cc1nn2c3c(nc2s1)CCN(C(=O)COc1ccc(C(F)(F)F)cc1Cl)C3c1ccc(Cl)nc1F` (stereo not drawn) [Example 1.16.7, 1-(5-(6-chloro-2-fluoropyridin-3-yl)-2-methyl-7,8-dihydro-[1,3,4]thiadiazolo[2′,3′:2,3]imidazo[4,5-c]pyridin-6(5H)-yl)-2-(2-chloro-4-(trifluoromethyl)phenoxy)ethanone] yielded an IC50 of 5 nM. Compound `Cc1nn2c3c(nc2s1)CCN(C(=O)COc1ccc(S(N)(=O)=O)cc1C)C3c1sccc1F` (stereo not drawn) [Example 1.23.2, 4-(2-(5-(3-fluorothiophen-2-yl)-2-methyl-7,8-dihydro-[1,3,4]thiadiazolo[2′,3′:2,3]imidazo[4,5-c]pyridin-6(5H)-yl)-2-oxoethoxy)-3-methylbenzenesulfonamide] gave a half-maximal inhibitory concentration (IC50) of 89 nM.

For `CCc1nn2c3c(nc2s1)CCN(C(=O)COc1ccc(NS(C)(=O)=O)nc1Cl)C3c1ccc(Cl)cc1F` (stereo not drawn) [Example 3.1.1, N-(6-chloro-5-(2-(5-(4-chloro-2-fluorophenyl)-2-ethyl-7,8-dihydro-[1,3,4]thiadiazolo[2′,3′:2,3]imidazo[4,5-c]-pyridin-6(5H)-yl)-2-oxoethoxy)pyridin-2-yl)methanesulfonamide], half-maximal inhibition (IC50) required 13 nM. Same read-out and setting: under `Cc1nn2c3c(nc2s1)CCN(C(=O)COc1ccc(N2CCOCC2)nc1Cl)C3c1cnc(C(=O)N(C)C)s1` (stereo not drawn) [Example 1.34.1, 5-(6-(2-((2-chloro-6-morpholinopyridin-3-yl)oxy)acetyl)-2-methyl-5,6,7,8-tetrahydro-[1,3,4]thiadiazolo[2′,3′:2,3]imidazo[4,5-c]pyridin-5-yl)-N,N-dimethylthiazole-2-carboxamide] stands 6 nM; under `CNC(=O)c1cc(F)c(C2c3c(nc4sc(C)nn34)CCN2C(=O)COc2ccc(C(N)=O)nc2Cl)s1` (stereo not drawn) [Example 1.25.6, 6-chloro-5-(2-(5-(3-fluoro-5-(methylcarbamoyl)thiophen-2-yl)-2-methyl-7,8-dihydro-[1,3,4]thiadiazolo[2′,3′:2,3]imidazo[4,5-c]pyridin-6(5H)-yl)-2-oxoethoxy)picolinamide], 8 nM; under `Cc1nn2c3c(nc2s1)CCN(C(=O)COc1ccc(NS(C)(=O)=O)nc1Cl)C3c1ncc(F)cc1C` (stereo not drawn) [Example 1.75.1, N-(6-chloro-5-(2-(5-(5-fluoro-3-methylpyridin-2-yl)-2-methyl-7,8-dihydro-[1,3,4]thiadiazolo[2′,3′:2,3]imidazo[4,5-c]pyridin-6(5H)-yl)-2-oxoethoxy)pyridin-2-yl)methanesulfonamide], 9 nM.

Compound `CCc1nc(NS(C)(=O)=O)ccc1OCC(=O)N1CCc2nc3sc(C(F)(F)F)nn3c2C1c1ncc(C)cc1F` (stereo not drawn) [Example 5.2.2, N-(6-ethyl-5-(2-(5-(3-fluoro-5-methylpyridin-2-yl)-2-(trifluoromethyl)-7,8-dihydro-[1,3,4]thiadiazolo[2′,3′:2,3]imidazo[4,5-c]pyridin-6(5H)-yl)-2-oxoethoxy)pyridin-2-yl)methanesulfonamide] came in with an IC50 of 42 nM. The same measure, in the same setting: under `Cc1nn2c3c(nc2s1)CCN(C(=O)COc1ccc(N(C)CC(F)(F)F)nc1Cl)C3c1cc(CN(C)C)cs1` (stereo not drawn) [Example 1.8.5, 2-((2-chloro-6-(methyl(2,2,2-trifluoroethyl)amino)pyridine-3-yl)oxy)-1-(5-(4-((dimethylamino)methyl)thiophen-2-yl)-2-methyl-7,8-dihydro-[1,3,4]thiadiazolo[2′,3′:2,3]imidazo[4,5-c]pyridin-6(5H)-yl)ethanone] stands 25 nM.

In turn, `COC(=O)c1ccc(OCC(=O)N2CCc3nc4sc(C)nn4c3C2c2ccc(Cl)cc2F)c(Cl)n1` (stereo not drawn) [Example 1.4.8, Methyl 6-chloro-5-(2-(5-(4-chloro-2-fluorophenyl)-2-methyl-7,8-dihydro-[1,3,4]thiadiazolo[2′,3′:2,3]imidazo[4,5-c]pyridin-6(5H)-yl)-2-oxoethoxy)picolinate] gave an IC50 of 32 nM. Same read-out and setting: under `Cc1nn2c3c(nc2s1)CCN(C(=O)COc1cccnc1F)C3c1ccc(C2CC2)cc1F` (stereo not drawn) [Example 1.6.5, 1-(5-(4-cyclopropyl-2-fluorophenyl)-2-methyl-7,8-dihydro-[1,3,4]thiadiazolo[2′,3′:2,3]imidazo[4,5-c]pyridin-6(5H)-yl)-2-((2-fluoropyridin-3-yl)oxy)ethanone] stands 89 nM; under `CCc1cc(Cl)ccc1OCC(=O)N1CCc2nc3sccn3c2C1c1c(C)nn(C)c1C` (stereo not drawn) [Example 6.15.4, 2-(4-chloro-2-ethylphenoxy)-1-(5-(1,3,5-trimethyl-1H-pyrazol-4-yl)-7,8-dihydrothiazolo[2′,3′:2,3]imidazo[4,5-c]pyridin-6(5H)-yl)ethanone], 102 nM. As for `CCc1nc(NS(C)(=O)=O)ccc1OCC(=O)N1CCc2nc3sc(CF)nn3c2C1c1ccc(C)cc1F` (stereo not drawn) [Example 7.3.2, N-(6-ethyl-5-(2-(5-(2-fluoro-4-methylphenyl)-2-(fluoromethyl)-7,8-dihydro-[1,3,4]thiadiazolo[2′,3′:2,3]imidazo[4,5-c]pyridin-6(5H)-yl)-2-oxoethoxy)pyridin-2-yl)methanesulfonamide], the midpoint of inhibition, the IC50, lay at 12 nM. The same measure, in the same setting: under `CCc1nc(C(=O)NC2CC2)ccc1OCC(=O)N1CCc2nc3sc(C(F)F)nn3c2C1c1sc(C)nc1C` (stereo not drawn) [Example 8.3.1, N-cyclopropyl-5-(2-(2-(difluoromethyl)-5-(2,4-dimethylthiazol-5-yl)-7,8-dihydro-[1,3,4]thiadiazolo[2′,3′:2,3]imidazo[4,5-c]pyridin-6(5H)-yl)-2-oxoethoxy)-6-ethylpicolinamide] stands 11 nM; under `Cc1nn2c3c(nc2s1)CCN(C(=O)COc1ccc(C#N)nc1Cl)C3c1ccc(C2CC2)cc1F` (stereo not drawn) [Example 1.6.23, 6-chloro-5-(2-(5-(4-cyclopropyl-2-fluorophenyl)-2-methyl-7,8-dihydro-[1,3,4]thiadiazolo[2′,3′:2,3]imidazo[4,5-c]pyridin-6(5H)-yl)-2-oxoethoxy)picolinonitrile], 8 nM; under `Cc1cnc(C2c3c(nc4sc(C)nn34)CCN2C(=O)COc2ccc(C(=O)N(C)C3CC3)nc2Cl)c(F)c1` (stereo not drawn) [Example 1.31.14, 6-chloro-N-cyclopropyl-5-(2-(5-(3-fluoro-5-methylpyridin-2-yl)-2-methyl-7,8-dihydro-[1,3,4]thiadiazolo[2′,3′:2,3]imidazo[4,5-c]pyridin-6(5H)-yl)-2-oxoethoxy)-N-methylpicolinamide], 32 nM.
